What is called inhibition is how much of the control response was suppressed. What is called IC50 is the concentration that gives 50% inhibition.

Data set [1] concerns Rattus norvegicus. Kind of data set: Percent radioactivity in excreta of rats 24 h following intravenous administration in feces. Format: ADME, organism-based. As to conditions: in vivo.
Data set [2] relates to Rattus norvegicus. Description: Percent radioactivity in excreta of rats 24 hr following intravenous administration in urine. Format: ADME, organism-based. As to conditions: in vivo.
Data set [3] in a line: Percent of [3H]- histidine found in 24 hr urine samples after intraduodenal administration. The data set is classed as ADME. As to conditions: other.
Data set [4] in a line: Percent of [3H]- histidine found in 24 hr urine samples after intravenous administration. The data set is classed as ADME.
Data set [5] can be described thus: Percent of compound found in 24 hr urine samples after intraduodenal administration. The data set is classed as ADME. As to conditions: read-out: Activity.
Data set [6] in a line: Percent of compound found in 24 hr urine samples after, intravenous administration. As to conditions: read-out: Activity. The data set is classed as ADME.
Data set [7] is described as follows: Percent of radiolabel found in 24 hr urine samples after intraduodenal administration. The data set is classed as ADME. As to conditions: other.
Data set [8] can be described thus: Percent of radiolabel found in 24 hr urine samples after intravenous administration. The data set is classed as ADME.
For data set [9], the system named is Rattus norvegicus. Kind of data set: Percent radioactivity in excreta of rats 24 hr following intraduodenal administration of the compound in feces. As to conditions: in vivo, other. The data set is classed as ADME, organism-based.
Data set [10] concerns Rattus norvegicus. Description: Percent radioactivity in excreta of rats 24 hr following intraduodenal administration of the compound in urine. As to conditions: in vivo, other. Format: ADME, organism-based.
Data set [11] relates to Monkey. Description: Heart rate determined at dosage of 1.0 mg/kg in male cynomolgus monkey. The data set is classed as functional, Cercopithecidae.
In data set [12] the test system is Monkey. Kind of data set: Heart rate determined at dosage of 10 mg/kg in male cynomolgus monkey. The data set is classed as functional, Cercopithecidae.
Data set [13] relates to Monkey. Kind of data set: Inhibition of Plasma renin activity was observed in male cynomolgus monkey at dose of 1.0 mg/kg. The data set is classed as functional, Cercopithecidae.
The subject of data set [14] is Monkey. Kind of data set: Inhibition of Plasma renin activity was observed in male cynomolgus monkey at dose of 10 mg/kg. The data set is classed as functional, Cercopithecidae.
Data set [15] deals with Monkey. Kind of data set: Mean blood pressure was measured in salt depleted male cynomolgus monkey at dose of 1.0 mg/kg intravenously. Format: functional, Cercopithecidae. As to conditions: route intravenous.
Data set [16] has as its system Monkey. Kind of data set: Mean blood pressure was measured in salt depleted male cynomolgus monkey at dose of 10 mg/kg intravenously. As to conditions: route intravenous. The data set is classed as functional, Cercopithecidae.
The next data set concerns the target Pepsin A (Sus scrofa) (UniProt P00791). Kind of data set: Evaluated for the percentage of inhibition of porcine pepsin at E-5M concentration.
A further data set addresses T1, Renin (Homo sapiens, UniProt P00797).
T1 sequence (P00797 whole entry): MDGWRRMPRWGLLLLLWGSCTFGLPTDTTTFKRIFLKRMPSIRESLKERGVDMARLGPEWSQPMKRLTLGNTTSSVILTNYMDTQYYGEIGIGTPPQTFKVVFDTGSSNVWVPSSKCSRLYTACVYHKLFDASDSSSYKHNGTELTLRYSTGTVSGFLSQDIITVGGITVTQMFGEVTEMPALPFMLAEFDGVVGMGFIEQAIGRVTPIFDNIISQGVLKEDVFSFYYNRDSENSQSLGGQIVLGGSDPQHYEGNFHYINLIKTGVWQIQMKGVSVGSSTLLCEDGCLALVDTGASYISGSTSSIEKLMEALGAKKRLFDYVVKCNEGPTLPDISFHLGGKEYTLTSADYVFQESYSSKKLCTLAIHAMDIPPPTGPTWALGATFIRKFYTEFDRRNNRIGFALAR
Kind of data set: Evaluated in vitro for inhibitory potency against renin.

The next data set addresses T2, Cathepsin D (Bos taurus) (UniProt P80209).
T2 sequence (whole entry): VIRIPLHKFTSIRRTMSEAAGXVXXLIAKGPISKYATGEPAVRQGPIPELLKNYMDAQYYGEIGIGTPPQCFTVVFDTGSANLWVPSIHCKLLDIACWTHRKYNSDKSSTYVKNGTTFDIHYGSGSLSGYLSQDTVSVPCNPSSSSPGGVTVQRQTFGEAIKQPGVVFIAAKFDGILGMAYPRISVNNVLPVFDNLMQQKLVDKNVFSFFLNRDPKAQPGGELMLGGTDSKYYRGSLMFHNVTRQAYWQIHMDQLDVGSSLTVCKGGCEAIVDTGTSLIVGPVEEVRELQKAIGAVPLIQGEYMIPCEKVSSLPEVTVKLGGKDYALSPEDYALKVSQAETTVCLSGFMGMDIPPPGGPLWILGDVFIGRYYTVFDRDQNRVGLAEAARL
Kind of data set: Evaluated for the percentage of inhibition of bovine cathepsin D at E-5M concentration.

Sequence of Pepsin A (Sus scrofa) (P00791 60-385 limits assumed): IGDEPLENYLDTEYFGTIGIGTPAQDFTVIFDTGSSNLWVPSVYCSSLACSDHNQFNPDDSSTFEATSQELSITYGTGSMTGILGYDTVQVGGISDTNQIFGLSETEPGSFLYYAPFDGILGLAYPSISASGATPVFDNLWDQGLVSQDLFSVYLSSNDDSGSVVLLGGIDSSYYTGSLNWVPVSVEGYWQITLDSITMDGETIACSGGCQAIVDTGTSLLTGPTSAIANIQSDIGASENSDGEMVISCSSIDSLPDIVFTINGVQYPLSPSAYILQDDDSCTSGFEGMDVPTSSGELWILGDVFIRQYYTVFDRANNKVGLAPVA

On to `CC(C)(C)OC(=O)N[C@@H](Cc1ccccc1)C(=O)N[C@@H](Cc1c[nH]cn1)C(=O)N[C@@H](CC1CCCCC1)[C@@H](O)CS(=O)(=O)C1CCCCC1`, for which the Activity is listed as 34.5% in the data set on Rattus norvegicus [1]; 5% in the data set on Rattus norvegicus [2]; 70% in data set [3]; 30% in data set [4]; 1% in [7]; 5% in data set [8]. The Activity in the data set on Rattus norvegicus [9] was determined as 26.6%; in the data set on Rattus norvegicus [10], 0.9%; with Monkey [13], 35.3 ng/mL/h; in the data set on Monkey [14], 107.7 ng/mL/h. In addition, the dose excreted at 24 h in data set [5] is 30%; in data set [6], 70%. Besides, the Heart rate in the data set with Monkey [11] worked out at 140 beats min-1; with Monkey [12], 197 beats min-1. Moreover, the Mean blood pressure in the data set on Monkey [15] is reported as 68 mmHg; in the data set on Monkey [16], 73 mmHg. Further, the inhibition against Pepsin A (Sus scrofa) and against Cathepsin D (Bos taurus) was 0% each time. This compound yielded an IC50 against Renin of 2.5 nM.

Source of the values: ChEMBL document CHEMBL1123652, “Optimization and in vivo evaluations of a series of small, potent, and specific renin inhibitors containing a novel Leu-Val replacement” (J Med Chem, 1987).
